The target of series [1] is T1, Met kinase (Homo sapiens, UniProt P08581). Kind of series: Met kinase inhibition, flashplate method (enzyme). It is filed as biochemical. Also on record: 6His (N); purchased Upstate 14-526; host or cells: Sf21 insect cells (S. frugiperda), baculovirus. On the procedure:
The test plates used are 96-well Flashplate® microtitre plates from Perkin Elmer (Cat. No SMP200). The components of the kinase reaction described below are pipetted into the assay plate. The Met kinase and the substrate poly Ala-Glu-Lys-Tyr, (pAGLT, 6:2:5:1), are incubated for 3 hrs at room temperature with radioactively labelled ^33P-ATP in the presence and absence of test substances in a total volume of […]. The reaction is terminated using 150 μl of a 60 mM EDTA solution. After incubation for a further 30 min at room temperature, the supernatants are filtered off with suction, and the wells are washed three times with 200 μl of 0.9% NaCl solution each time. The measurement of the bound radioactivity is carried out by means of a scintillation measuring instrument (Topcount NXT, Perkin-Elmer).
The full value used is the inhibitor-free kinase reaction. This should be approximately in the range 6000-9000 cpm. The pharmacological zero value used is staurosporin in a final concentration of 0.1 mM. The inhibitory values (IC50) are determined using the RS1_MTS program.
30 μl of assay buffer 10 μl of substance to be tested in assay buffer with 10% of DMSO 10 μl of ATP (final concentration 1 μM cold, 0.35 μCi of ^33P-ATP) 50 μl of Met kinase/substrate mixture in assay buffer; • (10 ng of enzyme/well, 50 ng of pAGLT/well)

Series [2] addresses T1, Met kinase. Kind of series: Met kinase inhibition (cell). It counts as cell-based.

T1 sequence (P08581 25-1390): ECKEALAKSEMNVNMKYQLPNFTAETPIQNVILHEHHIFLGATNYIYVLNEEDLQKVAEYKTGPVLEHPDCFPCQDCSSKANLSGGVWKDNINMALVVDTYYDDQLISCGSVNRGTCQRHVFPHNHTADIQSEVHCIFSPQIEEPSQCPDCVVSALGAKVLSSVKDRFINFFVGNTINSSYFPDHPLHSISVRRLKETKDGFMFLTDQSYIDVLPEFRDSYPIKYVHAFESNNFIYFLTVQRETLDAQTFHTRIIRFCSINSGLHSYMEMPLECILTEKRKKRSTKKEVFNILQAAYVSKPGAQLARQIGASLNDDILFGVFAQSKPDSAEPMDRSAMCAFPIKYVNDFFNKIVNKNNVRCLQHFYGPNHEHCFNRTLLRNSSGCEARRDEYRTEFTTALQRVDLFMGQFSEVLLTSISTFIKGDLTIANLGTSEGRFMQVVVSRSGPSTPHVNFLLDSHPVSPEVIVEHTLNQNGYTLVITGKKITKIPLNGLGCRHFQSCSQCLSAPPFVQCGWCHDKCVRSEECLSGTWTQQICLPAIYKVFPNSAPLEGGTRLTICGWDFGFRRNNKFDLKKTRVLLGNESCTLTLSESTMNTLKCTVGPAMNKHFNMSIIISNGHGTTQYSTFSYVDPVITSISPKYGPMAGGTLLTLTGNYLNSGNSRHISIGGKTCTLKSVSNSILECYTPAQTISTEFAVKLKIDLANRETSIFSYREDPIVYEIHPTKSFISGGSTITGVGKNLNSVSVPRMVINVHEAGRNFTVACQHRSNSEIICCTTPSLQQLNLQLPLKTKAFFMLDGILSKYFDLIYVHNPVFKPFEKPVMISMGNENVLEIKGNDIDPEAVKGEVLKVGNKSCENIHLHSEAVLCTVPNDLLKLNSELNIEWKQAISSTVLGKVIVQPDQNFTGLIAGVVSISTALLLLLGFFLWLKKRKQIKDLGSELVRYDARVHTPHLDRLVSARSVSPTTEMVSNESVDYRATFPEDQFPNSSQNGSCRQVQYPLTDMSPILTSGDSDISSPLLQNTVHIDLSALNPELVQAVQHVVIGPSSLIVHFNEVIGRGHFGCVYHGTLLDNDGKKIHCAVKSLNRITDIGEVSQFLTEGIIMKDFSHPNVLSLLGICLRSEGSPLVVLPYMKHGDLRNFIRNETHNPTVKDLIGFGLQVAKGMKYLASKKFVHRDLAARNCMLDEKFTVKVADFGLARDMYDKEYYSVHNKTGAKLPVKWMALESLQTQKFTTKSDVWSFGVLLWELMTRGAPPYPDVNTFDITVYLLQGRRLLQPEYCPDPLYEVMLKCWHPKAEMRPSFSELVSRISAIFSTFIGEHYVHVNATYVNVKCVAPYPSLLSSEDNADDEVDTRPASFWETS

Compound `N#Cc1ccc2[nH]c(-c3ccncc3)c(-c3ccc(F)cc3)c2n1` came in with a melting point of 230 °C.
The compound `N#Cc1ccc2[nH]c(-c3cncnc3)c(-c3ccc(F)cc3)c2n1` [Compound A14, 3-(4-fluorophenyl)-2-(pyrimidin-5-yl)-1H-pyrrolo[3,2-b]pyridine-5-carbonitrile] yielded a melting point of 230 to 232 °C.
At Met kinase [1], `N#Cc1ccc2[nH]c(-c3ccc(F)cc3)c(-c3ccncc3)c2n1` [Compound A20] showed a 50% inhibitory concentration (IC50) greater than 10 µM.
As to `N#Cc1ccc2[nH]c(-c3ccncc3)c(-c3cccc(F)c3)c2n1` [Compound A58], the IC50 at Met kinase [2] was greater than 10 µM; on Met kinase [1], 0.1 to 10 µM.
With `O=C(O)c1ccc2[nH]c(-c3ccncc3)c(-c3cccc(Cl)c3)c2n1` [Compound A59], the results for the half-inhibitory concentration (IC50) against Met kinase [2] and against Met kinase [1] were greater than 10 µM and 0.1 to 10 µM, respectively.
The corresponding values for `NC(=O)c1ccc2[nH]c(-c3ccncc3)c(-c3cccc(Cl)c3)c2n1` [Compound A60] are greater than 10 µM and 0.1 to 10 µM.
The corresponding values for `O=C(NCCN1CCOCC1)c1ccc2[nH]c(-c3ccncc3)c(-c3cccc(Cl)c3)c2n1` [Compound A61] are greater than 10 µM and greater than 10 µM.
In the case of `N#Cc1ccc2[nH]c(-c3cncnc3)c(-c3cccc(Cl)c3)c2n1` [Compound A62, 3-(3-Chlorophenyl)-2-pyrimidin-5-yl-1H-pyrrolo[3,2-b]pyridine-5-carbonitrile], the IC50 at Met kinase [1] was greater than 10 µM.

For the origin of these results see patent US20110207732A1, “AZAINDOLE DERIVATIVES” (MERCK PATENT GESELLSCHAFT MIT BESCHRANKTER HAFTUNG, priority 2008, published 2011).
